Test results: patent US20230277533A1, “THERAPEUTIC COMBINATIONS COMPRISING UBIQUITIN-SPECIFIC-PROCESSING PROTEASE 1 (USP1) INHIBITORS AND POLY (ADP-RIBOSE) POLYMERASE (PARP) INHIBITORS” (KSQ Therapeutics, Inc., priority 2020, published 2023)
pIC50: −log10 of the molar value. Like-named read-outs stand apart in the source and are kept apart here.

Experiments:
Assay in all cases: Colony formation (CFU) assay
Assay type in all cases: cell-based
[1] = system: 143B; conditions: Homo sapiens, bone
Method: (§1) In vitro experiments were conducted using the colony formation unit (CFU) assay on various cell lines. The CFU assay involved first establishing what cell plating density enabled the development of clearly interspersed colonies on a six-well plate when left to grow for around 14 days. […] Media was changed on day 8 containing appropriate concentrations of DMSO, USP1 inhibitor, Niraparib, or Olaparib. At or around day 14 when clearly interspersed colonies were visible in the DMSO treated wells, the cells were fixed and stained using 0.1% crystal violet in 10% ethanol for 20 minutes at room temperature. The plates were imaged then the amount of crystal violet stain in each well was quantified by extracting the crystal violet into 10% acetic acid and the absorbance measured at 565 nm.
(§2) IC50 values were calculated by fitting a two-parameter hill equation to the dose-response measurements. Non-linear-least-squares was used to find parameter values that minimize the squared error of the model fit to measured dose response. Non-linear-least-squares estimation was performed using the minpack.lm R package, version 1.2-1. Bliss synergy scores were calculated using the synergyfinder R package version 1.6.1.

[2] = system: 22RV1; conditions: Homo sapiens; 22RV1, prostate
Method: as §1, §2

[3] = system: 647V; conditions: Homo sapiens, bladder
Method: as §1, §2

[4] = system: 8305C; conditions: Homo sapiens, thyroid
Method: as §1, §2

[5] = system: BICR18; conditions: BICR18, head and neck
Method: as §1, §2

[6] = system: BICR22; conditions: BICR22, head and neck
Method: as §1, §2

[7] = system: BICR78; conditions: BICR78, head and neck
Method: as §1, §2

[8] = system: CAPAN2; conditions: Homo sapiens, Capan-2; CAPAN2, pancreas
Method: as §1, §2

[9] = system: COV362
Method: as §1, §2

[10] = system: COV434; conditions: COV434, ovary
Method: as §1, §2

[11] = system: CW2; conditions: Homo sapiens, CW-2, CW2, colon
Method: as §1, §2

[12] = system: DMS53; conditions: Homo sapiens, DMS-53; DMS53, lung
Method: as §1, §2

[13] = system: HBCx2; conditions: HBCx2, breast
Method: as §1, §2

[14] = system: HCC1806; conditions: Homo sapiens, HCC1806, breast
Method: as §1, §2

[15] = system: HCT116; conditions: Homo sapiens, HCT-116, HCT116, colon
Method: as §1, §2

[16] = system: HPAC; conditions: Homo sapiens
Method: as §1, §2

[17] = system: HS578T; conditions: Homo sapiens, Hs-578T, breast
Method: as §1, §2

[18] = system: HS695T; conditions: Homo sapiens, Hs 695T, skin
Method: as §1, §2

[19] = system: HSC2; conditions: Homo sapiens, HSC-2; HSC2, head and neck
Method: as §1, §2

[20] = system: HT1080; conditions: Homo sapiens, HT-1080; HT1080, soft tissue
Method: as §1, §2

[21] = system: JHH7; conditions: JHH7, liver
Method: as §1, §2

[22] = system: LU99; conditions: Homo sapiens, Lu-99; LU99, lung
Method: as §1, §2

[23] = system: MDAMB436; conditions: Homo sapiens, MDA-MB-436, MDAMB436, breast
Method: as §1, §2

[24] = system: MSTO211H; conditions: Homo sapiens, MSTO-211H
Method: as §1, §2

[25] = system: NCIH1299; conditions: Homo sapiens, NCI-H1299; NCIH1299, lung
Method: as §1, §2

[26] = system: NCIH520; conditions: Homo sapiens, NCI-H520, NCIH520, lung
Method: as §1, §2

[27] = system: OV56; conditions: OV56, ovary
Method: as §1, §2

[28] = system: QGP1; conditions: QGP-1; QGP1, pancreas
Method: as §1, §2

[29] = system: RERFLCAI; conditions: lung
Method: as §1, §2

[30] = system: RL952; conditions: Homo sapiens, RL95-2; RL952, uterus
Method: as §1, §2

[31] = system: RT112; conditions: Homo sapiens, RT-112; RT112, bladder
Method: as §1, §2

[32] = system: SAOS2; conditions: Homo sapiens, SAOS-2; SAOS2, bone
Method: as §1, §2

[33] = system: SKES1; conditions: Homo sapiens, SK-ES1; SKES1, bone
Method: as §1, §2

[34] = system: SNU119; conditions: SNU119, ovary
Method: as §1, §2

[35] = system: SUIT2; conditions: SUIT-2; SUIT2, pancreas
Method: as §1, §2

[36] = system: TE11; conditions: Homo sapiens, TE-11, TE11, esophagus
Method: as §1, §2

[37] = system: UWB1289BRCA1; conditions: UWB1289BRCA1, ovary
Method: as §1, §2

Q: With `NC(=O)c1cccc2cn(-c3ccc([C@@H]4CCCNC4)cc3)nc12` [Niraparib, niraparib, reference compound] as the compound, how does the pIC50 [1] read?
A: Its pIC50 is < 6.52.

Q: And the pIC50 [2]?
A: The pIC50 was < 6.52.

Q: And the pIC50 [3]?
A: The pIC50 was 7.01.

Q: What about the pIC50 [4] of the same compound?
A: Its pIC50 is < 6.52.

Q: And the pIC50 [5]?
A: The pIC50 was < 6.52.

Q: What about the pIC50 [6] of the same compound?
A: The pIC50 was < 6.52.

Q: What about the pIC50 [7] of the same compound?
A: The pIC50 was < 6.52.

Q: What about the pIC50 [8] of the same compound?
A: Its pIC50 is < 6.52.

Q: And the “activity as single agents” value ([9]; COV362)?
A: The value was “modest activity”.

Q: And the pIC50 ([9]; COV362, ovary, read-out: IC50)?
A: The pIC50 was 6.75.

Q: What about the pIC50 [10] of the same compound?
A: Its pIC50 is 6.97.

Q: And the pIC50 [11]?
A: The pIC50 was < 6.52.

Q: And the pIC50 [12]?
A: The pIC50 was 6.77.

Q: What about the pIC50 [13] of the same compound?
A: The pIC50 was < 6.52.

Q: What about the pIC50 [14] of the same compound?
A: The pIC50 was 7.20.

Q: What about the pIC50 [15] of the same compound?
A: The pIC50 was < 6.52.

Q: And the pIC50 ([16]; pancreas)?
A: The pIC50 was < 6.52.

Q: And the pIC50 [17]?
A: Its pIC50 is < 6.52.

Q: And the pIC50 [18]?
A: Its pIC50 is 7.43.

Q: What about the pIC50 [19] of the same compound?
A: The pIC50 was < 6.52.

Q: And the pIC50 [20]?
A: Its pIC50 is < 6.52.

Q: And the pIC50 [21]?
A: The pIC50 was < 6.52.

Q: What about the pIC50 [22] of the same compound?
A: Its pIC50 is 7.05.

Q: What about the pIC50 [23] of the same compound?
A: Its pIC50 is 8.33.

Q: And the pIC50 ([24]; lung)?
A: The pIC50 was < 6.52.

Q: What about the pIC50 [25] of the same compound?
A: The pIC50 was < 6.52.

Q: What about the pIC50 [26] of the same compound?
A: Its pIC50 is < 6.52.

Q: What about the pIC50 [27] of the same compound?
A: The pIC50 was < 6.52.

Q: What about the pIC50 [28] of the same compound?
A: The pIC50 was < 6.52.

Q: What about the pIC50 [29] of the same compound?
A: The pIC50 was < 6.52.

Q: What about the pIC50 [30] of the same compound?
A: Its pIC50 is < 6.52.

Q: What about the pIC50 [31] of the same compound?
A: The pIC50 was < 6.52.

Q: And the pIC50 [32]?
A: The pIC50 was 6.70.

Q: And the pIC50 [33]?
A: The pIC50 was 7.63.

Q: And the pIC50 [34]?
A: Its pIC50 is 7.41.

Q: What about the pIC50 [35] of the same compound?
A: Its pIC50 is < 6.52.

Q: And the pIC50 [36]?
A: The pIC50 was 6.75.

Q: And the pIC50 [37]?
A: Its pIC50 is 6.73.

Q: How did the pIC50 [1] turn out when `COc1ncnc(C2CC2)c1-c1ncc2cnn(Cc3ccc(-c4nc(C(F)(F)F)cn4C)cc3)c2n1` [Formula II, 6-(4-cyclopropyl-6-methoxypyrimidin-5-yl)-1-(4-(1-methyl-4-(trifluoromethyl)-1H-imidazol-2-yl)benzyl)-1H-pyrazolo[3,4-d]pyrimidine] was run?
A: The pIC50 was < 6.52.

Q: And the pIC50 [2]?
A: The pIC50 was < 6.52.

Q: And the pIC50 [3]?
A: The pIC50 was 7.47.

Q: And the pIC50 [4]?
A: Its pIC50 is < 6.52.

Q: And the pIC50 [5]?
A: Its pIC50 is < 6.52.

Q: What about the pIC50 [6] of the same compound?
A: The pIC50 was < 6.52.

Q: And the pIC50 [7]?
A: Its pIC50 is < 6.52.

Q: What about the pIC50 [8] of the same compound?
A: Its pIC50 is < 6.52.

Q: And the pIC50 ([9]; COV362)?
A: Its pIC50 is < 6.52.

Q: What about the “activity as single agents” value ([9]; COV362) of the same compound?
A: The value was “modest activity”.

Q: And the pIC50 [10]?
A: Its pIC50 is < 6.52.

Q: What about the pIC50 [11] of the same compound?
A: The pIC50 was < 6.52.

Q: And the pIC50 [12]?
A: The pIC50 was < 6.52.

Q: What about the pIC50 [13] of the same compound?
A: The pIC50 was < 6.52.

Q: What about the pIC50 [14] of the same compound?
A: The pIC50 was 6.94.

Q: And the pIC50 [15]?
A: The pIC50 was 6.96.

Q: And the pIC50 ([16]; pancreas)?
A: Its pIC50 is < 6.52.

Q: And the pIC50 [17]?
A: The pIC50 was < 6.52.

Q: And the pIC50 [18]?
A: Its pIC50 is < 6.52.

Q: What about the pIC50 [19] of the same compound?
A: Its pIC50 is < 6.52.

Q: And the pIC50 [20]?
A: The pIC50 was < 6.52.

Q: And the pIC50 [21]?
A: Its pIC50 is < 6.52.

Q: What about the pIC50 [22] of the same compound?
A: Its pIC50 is 7.45.

Q: What about the pIC50 [23] of the same compound?
A: The pIC50 was 8.19.

Q: What about the pIC50 ([24]; lung) of the same compound?
A: Its pIC50 is < 6.52.

Q: What about the pIC50 [25] of the same compound?
A: The pIC50 was < 6.52.

Q: And the pIC50 [26]?
A: Its pIC50 is < 6.52.

Q: What about the pIC50 [27] of the same compound?
A: Its pIC50 is < 6.52.

Q: What about the pIC50 [28] of the same compound?
A: The pIC50 was < 6.52.

Q: What about the pIC50 [29] of the same compound?
A: The pIC50 was < 6.52.

Q: What about the pIC50 [30] of the same compound?
A: Its pIC50 is < 6.52.

Q: And the pIC50 [31]?
A: The pIC50 was < 6.52.

Q: And the pIC50 [32]?
A: The pIC50 was < 6.52.

Q: What about the pIC50 [33] of the same compound?
A: Its pIC50 is < 6.52.

Q: What about the pIC50 [34] of the same compound?
A: Its pIC50 is < 6.52.

Q: What about the pIC50 [35] of the same compound?
A: The pIC50 was < 6.52.

Q: And the pIC50 [36]?
A: Its pIC50 is 6.87.

Q: What about the pIC50 [37] of the same compound?
A: Its pIC50 is 6.86.

Q: Which results are given for `COc1ncnc(C2CC2)c1-c1ncc2cnn(Cc3ccc(-c4nc(C(F)(F)F)cn4C(C)C)cc3)c2n1` [Formula I, 6-(4-cyclopropyl-6-methoxypyrimidin-5-yl)-1-(4-(1-isopropyl-4-(trifluoromethyl)-1H-imidazol-2-yl)benzyl)-1H-pyrazolo[3,4-d]pyrimidine]?
A: pIC50 ([9]; Table 2, COV362, ovary, read-out: IC50): 6.69; pIC50 ([11]; Table 2): 7.17; pIC50 ([14]; Table 2): 7.21; pIC50 ([15]; Table 2): < 6.50; pIC50 ([16]; Table 2, pancreas): < 6.50; pIC50 ([23]; Table 2): 8.35; pIC50 ([24]; Table 2, lung): < 6.50; pIC50 ([26]; Table 2): < 6.50; pIC50 ([36]; Table 2): < 6.50; pIC50 ([37]; Table 2): 6.95
